These are literature values, as cited in article PMC4696931 (Advanced healthcare materials, 2015).

Data set [1] deals with MMP2. The following applies: PEG hydrogels with the peptide as crosslinker.
Data set [2] relates to MMP2. As to conditions: linker peptide alone.

For SGESPAY↓YTA [NRL1], in the data set on MMP2 [1], the “time to degradation of hydrogels crosslinked with the sequence in MMP2” value is listed as ~ 1 days. Also, the “reported kcat KM^−1 for MMP2” value in the data set with MMP2 [2] was 440000 M⁻¹ s⁻¹.
